Assay results as given in patent publication US11129820B2, “Ferroportin-inhibitor salts” (Vifor (International) AG, priority 2017, dated 2021).
Marks after values point to notes of the source that are not given here.

Tests used:
Hbb th3/+ mice = assay: Mouse model of β-thalassemia intermedia (Hbb th3/+ mice); format: in vivo; settings: for Decrease in RDW by 20/60 mg/kg compound / Decrease in ^58Fe spleen iron content by 20/60 mg/kg compound / Decrease in blood reticulocyte counts by 20/60 mg/kg compound / Decrease in leukocyte counts by 20/60 mg/kg compound / Decrease in serum erythropoietin by 20/60 mg/kg compound / Increase in blood erythrocyte counts by 20/60 mg/kg compound / Increase in hematocrit by 20/60 mg/kg compound / Prevention of liver ^58Fe loading by 20/60 mg/kg / Decrease in serum iron by 20/60 mg/kg compound / Decreased in ROS in bone marrow erythrocytes: % change to vehicle; for Correction of anemia at day 20-48 by 20/60 mg/kg: hemoglobin difference to vehicle; for Decrease in serum iron by 20/60 mg/kg compound: dosed for 3 h
Description: The efficacy of Fpn inhibitors is investigated using a mouse model of transfusion-independent β-thalassemia. Mice with heterozygous deletion of β 1 and β 2 globin genes (called Hbb th3/+ mice) develop transfusion-independent anemia, ineffective erythropoiesis, splenomegaly and secondary iron overload in spleen, liver and kidneys. […] Hbb th3/+ mice are dosed twice daily with either compound at 20 or 60 mg/kg or with methylcellulose (10 ml/kg, Sigma, Cat. 274429) as a vehicle. Between both doses mice have access to drinking water supplemented with 1 mM ^58Fe(II)-sulfate (Vifor Pharma, Batch No. ROR 3096) and 10 mM ascorbic acid (Sigma, Cat. 795437) for 6 h. The concentration of ^58Fe(II)-Sulfate supplied in the drinking water is adjusted to substitute for intake of standard rodent diet with iron content of 250 ppm. Water without ^58Fe(II)-Sulfate and ascorbic acid is provided during the remaining 18 h. Dosing of Fpn inhibitors or vehicle followed by exposure to iron-containing water is repeated for 20 to 46 days in individual experiments.
Additional hematologic parameters are measured in terminal blood using automated blood cell analyzer.
The inefficient erythropoiesis of Hbb th3/+ mice causes excessive proliferation of erythroid precursors in spleen, leading to splenomegaly.
Elevated erythropoietin levels in Hbb th3/+ mice induce overexpression of erythroferrone, an erythroid regulator hormone known to suppress hepcidin (Kautz L. et al, Nat. Genet., 2014). […] Erythroferrone is produced by erythrocyte precursors proliferating massively in spleens of Hbb th3/+ mice as a consequence of extramedullar erythropoiesis.
Increased iron demand due to inefficient erythropoiesis and chronically low hepcidin levels in patients with thalassemia causes organ iron loading and associated morbidities, such as hepatocellular carcinoma and heart failure (Rivella S. Haematologica, 2015). Hbb th3/+ mice absorb excessive amounts of iron as a consequence of inadequately low hepcidin levels relative to the high iron content in liver, spleen and kidney and increased ferroportin expression in duodenum (Gardenghi S., Blood, 2007).
Additionally, reactive oxygen species (ROS) are detected in bone marrow cells using a fluorescent indicator, CM-H2DCFDA (Thermo Fisher Scientific, Cat. C6827).
Data are expressed as difference to the vehicle control group for hemoglobin and as % change to the vehicle control group for all other parameter shown

[1] = system: beta2-microglobulin deficient (b2m−/−) mice; assay: Correction of hyperferremia in beta2-microglobulin deficient mice; format: in vivo, mouse; settings: blood collection time not marked
Description: Female and male homozygous b2m−/− mice are supplied from Jackson Laboratories (B6.129P2-B2mtm1Unc/J, Stock Number: 002087) at age of 6 to 7 weeks and fed standard diet (Harlan Provimi Kliba 3436) ad libitum. Age and gender matched WT C57BL/6 mice are supplied by Charles River. To study the acute effects of ferroportin (Fpn) inhibitors in iron overload b2m−/− mice are treated with compounds or the corresponding amount of vehicle at a volume of 10 ml/kg body weight. Fpn inhibitor compounds are formulated in 0.5% methylcellulose/water or 20% cremophor EL/water and dosed p.o. in mice at 50 mg/kg body weight. WT controls received only vehicle. Three hours later, mice are pre-terminally anesthetized in isoflurane chambers and blood is collected by retro-orbital bleeding. Mice are sacrificed by cervical dislocation and spleens, livers and duodena are harvested and used for biomarker analysis. All experiments are performed in compliance with license approved by the responsible veterinarian authorities. Serum is isolated by centrifugation of blood into gel-containing microtainers (BD Biosciences) and serum iron is determined by the MULTIGENT Iron assay (Abbott Diagnostics, Cat. 6K95). Four to nine mice per group are used and one-way ANOVA with Bonferroni's multiple comparison test is applied to analyze the statistical differences between the experimental groups.
Blood is collected 1 (#) or 3 (##) hours after oral administration of the indicated doses of Fpn inhibitors to beta2-microglobulin deficient mice and serum iron concentrations are measured. Relative reduction (%) of serum iron levels are shown, which were calculated by subtracting the average of serum iron values of animals dosed with the Fpn inhibitor from that of vehicle-treated animals. The difference in average serum iron values between vehicle and compound treated groups was then divided by the average of serum iron of the vehicle control group and listed as percentage. Values are listed separately for female (♀) and male (♂) animals, because a marked sex-dependent difference in efficacy was noted. Statistically significant (2-way ANOVA with Bonferroni post test) differences observed between compound-treated and vehicle-treated groups are indicated (*** p<0.001; ** p<0.01, p<0.05).

[2] = system: beta2-microglobulin deficient (b2m−/−) mice; assay: Prevention of iron overload in beta2-microglobulin deficient mice; format: in vivo, mouse; settings: 14 days
Description: In addition, feeding 3 week old b2m−/− mice a diet with low iron content (LID) immediately after weaning prevents liver iron loading by age of 6-7 weeks. The efficacy of the Fpn inhibitors to prevent liver iron accumulation in b2m−/− mice is investigated. Three weeks old b2−/− mice fed LID are dosed with either Fpn inhibitor or vehicle (methylcellulose; 10 ml/kg). Mice have access to drinking water supplemented with 1 mM ^58Fe(II)-sulfate and 10 mM ascorbic acid. Dosing of Fpn inhibitor or vehicle followed by exposure to iron-containing water is repeated for 14 days. Mice are euthanized and the liver and spleen iron contents are analyzed by ICP-OES (all iron isotopes) and liver tissue is also analyzed for ^58Fe concentration (ICP-MS).
Livers and spleens are collected after 14 day treatment (p.o.; b.i.d) of beta2-microglobulin deficient mice with the indicated doses of Fpn inhibitors. Total liver and spleen tissue iron concentrations are measured using ICP-OES and ^58Fe liver concentrations are determined with ICP-MS. Relative changes (%) of tissue iron levels are calculated by normalizing the difference between the averages of tissue iron values of animals dosed with the Fpn inhibitors and those of vehicle-treated animals with the average of vehicle controls.

[3] = 20 mg/kg twice daily for 20-46 days
[4] = 60 mg/kg twice daily for 20-46 days

O=C(NCc1ncccc1F)c1cnc(CCNCCc2nc3ccccc3[nH]2)o1 [Example Compound No. 1]
Decrease in RDW by 20/60 mg/kg compound (Hbb th3/+ mice; [3]): 3% | Decrease in ^58Fe spleen iron content by 20/60 mg/kg compound (Hbb th3/+ mice; [3]): 14% | Decrease in blood reticulocyte counts by 20/60 mg/kg compound (Hbb th3/+ mice; [3]): 8% | Decrease in leukocyte counts by 20/60 mg/kg compound (Hbb th3/+ mice; [3]): 32% | Decrease in serum erythropoietin by 20/60 mg/kg compound (Hbb th3/+ mice; [3]): 64% | Increase in blood erythrocyte counts by 20/60 mg/kg compound (Hbb th3/+ mice; [3]): 4% | Increase in hematocrit by 20/60 mg/kg compound (Hbb th3/+ mice; [3]): 0% | Prevention of liver ^58Fe loading by 20/60 mg/kg (Hbb th3/+ mice; [3]): 12% | Correction of anemia at day 20-48 by 20/60 mg/kg (Hbb th3/+ mice; 20 mg/kg twice daily): 6 g/L | Decrease in serum iron by 20/60 mg/kg compound (Hbb th3/+ mice; 20 mg/kg): 49% | Decrease in RDW by 20/60 mg/kg compound (Hbb th3/+ mice; [4]): 16% | Decrease in ^58Fe spleen iron content by 20/60 mg/kg compound (Hbb th3/+ mice; [4]): 48% | Decrease in blood reticulocyte counts by 20/60 mg/kg compound (Hbb th3/+ mice; [4]): 39% | Decrease in leukocyte counts by 20/60 mg/kg compound (Hbb th3/+ mice; [4]): 44% | Decrease in serum erythropoietin by 20/60 mg/kg compound (Hbb th3/+ mice; [4]): 78% | Increase in blood erythrocyte counts by 20/60 mg/kg compound (Hbb th3/+ mice; [4]): 8% | Increase in hematocrit by 20/60 mg/kg compound (Hbb th3/+ mice; [4]): 4% | Prevention of liver ^58Fe loading by 20/60 mg/kg (Hbb th3/+ mice; [4]): 40% | Correction of anemia at day 20-48 by 20/60 mg/kg (Hbb th3/+ mice; 60 mg/kg twice daily): 20 g/L | Decrease in serum iron by 20/60 mg/kg compound (Hbb th3/+ mice; 60 mg/kg): 66% | Decreased in ROS in bone marrow erythrocytes (Hbb th3/+ mice; first value of the pair (20 mg/kg; dose not printed in this line)): 20% | Decreased in ROS in bone marrow erythrocytes (Hbb th3/+ mice; second value of the pair (60 mg/kg; dose not printed in this line)): 45% | Serum Iron Reduction (%) ([1]; female ♀, 20 mg/kg oral): 31** % | Serum Iron Reduction (%) ([1]; female ♀, 60 mg/kg oral): 52** % | Serum Iron Reduction (%) ([1]; male ♂, 20 mg/kg oral): 31** % | Serum Iron Reduction (%) ([1]; male ♂, 60 mg/kg oral): 59** % | Total Liver Iron Reduction (%) ([2]; female ♀, 20 mg/kg p.o. b.i.d.): −1% | Total Spleen Iron Increase (%) ([2]; female ♀, 20 mg/kg p.o. b.i.d.): 21% | ^58Fe Liver Iron Reduction (%) ([2]; female ♀, 20 mg/kg p.o. b.i.d.): 4% | Total Liver Iron Reduction (%) ([2]; female ♀, 60 mg/kg p.o. b.i.d.): 15% | Total Spleen Iron Increase (%) ([2]; female ♀, 60 mg/kg p.o. b.i.d.): 65% | ^58Fe Liver Iron Reduction (%) ([2]; female ♀, 60 mg/kg p.o. b.i.d.): 59% | Total Liver Iron Reduction (%) ([2]; male ♂, 20 mg/kg p.o. b.i.d.): 16% | Total Spleen Iron Increase (%) ([2]; male ♂, 20 mg/kg p.o. b.i.d.): 28% | ^58Fe Liver Iron Reduction (%) ([2]; male ♂, 20 mg/kg p.o. b.i.d.): −8% | Total Liver Iron Reduction (%) ([2]; male ♂, 60 mg/kg p.o. b.i.d.): 25% | Total Spleen Iron Increase (%) ([2]; male ♂, 60 mg/kg p.o. b.i.d.): 49% | ^58Fe Liver Iron Reduction (%) ([2]; male ♂, 60 mg/kg p.o. b.i.d.): 22%
